Data published in patent US20230339981A1, “KRAS G12D MODULATING COMPOUNDS” (priority 2022, published 2023).
pEC50, pIC50: −log10 of the molar value.

Legend:
[1] = test system: GP2D (KRAS G12D) cells; assay: 2D cell viability assay (CellTiter-Glo); format: cell-based; details: GP2d, 96 h, 4 days
Method in brief: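 Viability was read by CellTiter-Glo after 4 days at 37 °C of 2D culture of KRAS G12D GP2D cells (1000/well, RPMI, 10% FBS) on pre-spotted threefold compound dilutions. EC50 was fitted with a sigmoidal dose-response model as the point of half-maximal luminescence loss.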

[2] = test system: AsPC-1 (KRAS G12D) cells; assay: 3D cell viability assay (spheroids, CellTiter-Glo 3D); format: cell-based; details: Homo sapiens, ASPC1, 96 h, AsPC-1 cells, 3D spheroids, 4 days
Protocol: Example C. 3D Cell Viability Assay
Compounds were tested in a 384-well format for their ability to inhibit the viability of AsPC-1 (KRAS G12D) cells in 3D assays. On day 0, 1000 cells/well (80 μL volume per well) in DMEM with 10% FBS, and Penicillin-Streptomycin-Glutamine were plated in 384-well Ultra-Low Attachment Spheroid Microplates (Corning, Catalog #3830) on the BioTEK EL406 liquid dispenser with a 5 μL dispensing cassette (BioTek 7170011). The plates were incubated at 37° C., 5% CO2 for 3 days to allow spheroid formation. On day 3, compounds were serially diluted (1:3) in DMSO. The Biomek FX was used to add 400 nL of test molecule per well. The plates were incubated at 37° C., 5% CO2 for 4 days before addition of CellTiter-Glo 3D (Promega, Catalog #9683) reagent and measurement of luminescence signal. EC50 values were defined as the compound concentration that causes a 50% decrease in luminescence signal and were calculated using a sigmoidal dose-response model to generate curve fits.

[3] = target: GDP-loaded KRAS G12D (Homo sapiens (Human), UniProt P01116, G12D); assay: KRAS G12D (GDP) biochemical assay (TR-FRET probe displacement); format: binding; details: 2 hours
GDP-loaded KRAS G12D, sequence (P01116-2 other isoform, or with tags, fused parts or gaps G12D): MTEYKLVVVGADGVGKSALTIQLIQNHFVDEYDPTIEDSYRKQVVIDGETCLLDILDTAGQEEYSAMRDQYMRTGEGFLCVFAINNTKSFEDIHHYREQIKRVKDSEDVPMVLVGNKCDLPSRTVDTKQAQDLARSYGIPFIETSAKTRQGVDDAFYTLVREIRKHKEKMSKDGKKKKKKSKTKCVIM
Method in brief: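 TR-FRET probe displacement: 1:3 DMSO serial dilutions pre-incubated 30 min with GDP-bound KRAS G12D, followed by Eu-streptavidin/probe for 2 h at room temperature (Hepes pH 7.4, NaCl, MgCl2, Tween-20 buffer). IC50 defined as concentration halving TR-FRET ratio, from sigmoidal dose-response fit.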

SMILES | pEC50 [1] | pEC50 [2] | pIC50 [3]
C#Cc1c(F)ccc2cc(O)cc(-c3nc4c5c(nc(OC[C@]67CC(=C)CN6C[C@H](F)C7)nc5c3F)N3C[C@H]5CC[C@H](N5)[C@H]3CO4)c12 [Example 13, 5-ethynyl-6-fluoro-4-((5aS,6S,9R)-1-fluoro-12-(((2R,7aR)-2-fluoro-6-methylenetetrahydro-1H-pyrrolizin-7a(5H)-yl)methoxy)-5a,6,7,8,9,10-hexahydro-5H-4-oxa-3,10a,11,13,14-pentaaza-6,9-methanonaphtho[1,8-ab]heptalen-2-yl)naphthalen-2-ol] | 8.70 | 7.77 | 9.40
C#Cc1c(F)ccc2cc(O)cc(-c3nc4c5c(nc(OC[C@@]67CCCN6[C@H](COc6cnc(C(F)(F)F)cn6)CC7)nc5c3F)N3C[C@H]5CC[C@H](N5)[C@H]3CC4)c12 [Example 155, 5-ethynyl-6-fluoro-4-((5aR,6S,9R)-1-fluoro-12-(((3S,7aS)-3-(((5-(trifluoromethyl)pyrazin-2-yl)oxy)methyl)tetrahydro-1H-pyrrolizin-7a(5H)-yl)methoxy)-4,5,5a,6,7,8,9,10-octahydro-3,10a,11,13,14-pentaaza-6,9-methanonaphtho[1,8-ab]heptalen-2-yl)naphthalen-2-ol] | 9.52 | 8.28 | 10.00
Oc1cc(-c2nc3c4c(nc(OC[C@@]56CCCN5C[C@H](F)C6)nc4c2F)N2C[C@H]4CC[C@H](N4)[C@H]2CC3)c2c(F)c(F)ccc2c1 [Example 27, 5,6-difluoro-4-((5aR,6S,9R)-1-fluoro-12-(((2R,7aS)-2-fluorotetrahydro-1H-pyrrolizin-7a(5H)-yl)methoxy)-4,5,5a,6,7,8,9,10-octahydro-3,10a,11,13,14-pentaaza-6,9-methanonaphtho[1,8-ab]heptalen-2-yl)naphthalen-2-ol] | 8.40 | 7.54 | 9.15
C#Cc1c(F)ccc2cc(O)cc(-c3nc4c5c(nc(OC[C@@]67CCCN6C[C@@H](OC(C(F)(F)F)(C(F)(F)F)C(F)(F)F)C7)nc5c3F)N3C[C@H]5CC[C@H](N5)[C@H]3CC4)c12 (stereo in doubt) [Example 134, 5-ethynyl-6-fluoro-4-((5aR,6S,9R)-1-fluoro-12-((cis-2-((1,1,1,3,3,3-hexafluoro-2-(trifluoromethyl)propan-2-yl)oxy)tetrahydro-1H-pyrrolizin-7a(5H)-yl)methoxy)-4,5,5a,6,7,8,9,10-octahydro-3,10a,11,13,14-pentaaza-6,9-methanonaphtho[1,8-ab]heptalen-2-yl)naphthalen-2-ol] | 8.66 | 7.51 | 9.30
Oc1cc(-c2nc3c4c(nc(OC[C@@]56CCCN5C[C@H](F)C6)nc4c2F)N2C[C@H]4CC[C@H](N4)[C@H]2CC3)c2ccccc2c1 [Example 24, 4-((5aR,6S,9R)-1-fluoro-12-(((2R,7aS)-2-fluorotetrahydro-1H-pyrrolizin-7a(5H)-yl)methoxy)-4,5,5a,6,7,8,9,10-octahydro-3,10a,11,13,14-pentaaza-6,9-methanonaphtho[1,8-ab]heptalen-2-yl)naphthalen-2-ol] | 7.77 | 6.72 | 9.00
C#Cc1c(F)ccc2cccc(-c3nc4c5c(nc(OC[C@@]67CCCN6C[C@H](F)C7)nc5c3F)N3C[C@H]5CC[C@H](N5)C3C[C@@H]4C)c12 (stereo in doubt) [Example 93, (4S,5aS,6S,9R)-2-(8-ethynyl-7-fluoronaphthalen-1-yl)-1-fluoro-12-(((2R,7aS)-2-fluorotetrahydro-1H-pyrrolizin-7a(5H)-yl)methoxy)-4-methyl-4,5,5a,6,7,8,9,10-octahydro-3,10a,11,13,14-pentaaza-6,9-methanonaphtho[1,8-ab]heptalene] | 7.58 | 7.09 | 8.60
CCc1c(F)ccc2cc(O)cc(-c3cc4c5c(nc(OC[C@@]67CCCN6C[C@H](F)C7)nc5c3F)N3C[C@H]5CC[C@H](N5)[C@H]3CC4)c12 [Example 128, 5-ethyl-6-fluoro-4-((1S,4R,14aR)-10-fluoro-8-(((2R,7aS)-2-fluorotetrahydro-1H-pyrrolizin-7a(5H)-yl)methoxy)-1,2,3,4,5,13,14,14a-octahydro-1,4-epiminoazepino[1′,2′:1,7]azepino[2,3,4-de]quinazolin-11-yl)naphthalen-2-ol] | 8.39 | 7.23 | 9.70
C#Cc1c(F)ccc2cccc(-c3nc4c5c(nc(OC[C@@]67CCCN6C[C@H](F)C7)nc5c3F)N3C[C@H]5CC[C@H](N5)[C@H]3C[C@@H]4CC)c12 [Example 175, (4S,5aR,6S,9R)-4-ethyl-2-(8-ethynyl-7-fluoronaphthalen-1-yl)-1-fluoro-12-(((2R,7aS)-2-fluorotetrahydro-1H-pyrrolizin-7a(5H)-yl)methoxy)-4,5,5a,6,7,8,9,10-octahydro-3,10a,11,13,14-pentaaza-6,9-methanonaphtho[1,8-ab]heptalene] | 7.92 | 6.82 | 9.30
C#Cc1c(F)ccc2cccc(-c3nc4c5c(nc(OC[C@@]67CCCN6[C@H](COC(C)(C(F)(F)F)C(F)(F)F)CC7)nc5c3F)N3C[C@H]5CC[C@H](N5)[C@H]3CC4)c12 [Example 112, (5aR,6S,9R)-2-(8-ethynyl-7-fluoronaphthalen-1-yl)-1-fluoro-12-(((3S,7aS)-3-(((1,1,1,3,3,3-hexafluoro-2-methylpropan-2-yl)oxy)methyl)tetrahydro-1H-pyrrolizin-7a(5H)-yl)methoxy)-4,5,5a,6,7,8,9,10-octahydro-3,10a,11,13,14-pentaaza-6,9-methanonaphtho[1,8-ab]heptalene] | 7.39 | 6.57 | 9.52
C#Cc1c(F)ccc2cc(O)cc(-c3nc4c5c(nc(OC[C@@]67CCCN6C[C@H](F)C7)nc5c3F)N3C[C@H]5CC[C@H](N5)[C@@H]3[C@@H](C)[C@H]4C)c12 [Example 87, 5-ethynyl-6-fluoro-4-((4R,5S,5aS,6S,9R)-1-fluoro-12-(((2R,7aS)-2-fluorotetrahydro-1H-pyrrolizin-7a(5H)-yl)methoxy)-4,5-dimethyl-4,5,5a,6,7,8,9,10-octahydro-3,10a,11,13,14-pentaaza-6,9-methanonaphtho[1,8-ab]heptalen-2-yl)naphthalen-2-ol] | 9.70 | 9.52 | 9.40
C#Cc1c(F)ccc2cccc(-c3nc4c5c(nc(OC[C@@]67CCCN6C[C@H](F)C7)nc5c3F)N3C[C@H]5CC[C@H](N5)[C@H]3CCC4)c12 [Example 76, (6aR,7S,10R)-2-(8-ethynyl-7-fluoronaphthalen-1-yl)-1-fluoro-13-(((2R,7aS)-2-fluorotetrahydro-1H-pyrrolizin-7a(5H)-yl)methoxy)-5,6,6a,7,8,9,10,11-octahydro-4H-3,11a,12,14,15-pentaaza-7,10-methanocyclohepta[4,5]cycloocta[1,2,3-de]naphthalene] | 8.40 | 7.57 | 10.00
C#Cc1c(F)ccc2cccc(-c3nc4c5c(nc(OC[C@@]67CCCN6C[C@H](F)C7)nc5c3F)N3C[C@H]5CC[C@H](N5)[C@@H]3[C@@H](C)[C@H]4C)c12 [Example 86, (4R,5S,5aS,6S,9R)-2-(8-ethynyl-7-fluoronaphthalen-1-yl)-1-fluoro-12-(((2R,7aS)-2-fluorotetrahydro-1H-pyrrolizin-7a(5H)-yl)methoxy)-4,5-dimethyl-4,5,5a,6,7,8,9,10-octahydro-3,10a,11,13,14-pentaaza-6,9-methanonaphtho[1,8-ab]heptalene] | 7.84 | 7.19 | 9.30
